We go through ten molecules from US10799508B2, “Methods for treating cancer using HSP90 inhibitors” (AI Therapeutics, Inc., priority 2017, dated 2020).

In series [1] the test system is IFN-γ-induced PD-L1 expression in SK-MEL-28 cells. The series is described as follows: 10-point dose response validation of IFN-γ-induced PD-L1 signal. The series is classed as cell-based, human. The settings on record: 48 h; for IFN-γ-induced PD-L1 signal: SK-MEL-28, 10-point dose response 9.8-5000 nM, FIG. 1A-D; for concentration required to inhibit IFN-γ-induced PD-L1 expression compared with concentration required to affect cell proliferation: SK-MEL-28, IFN-γ 50 ng/ml, FIG. 2A-E. As to the method:
FIG. 1A-D. Validation dose response curves of HSP90 inhibitors tested in the original screen. A) CNF2024; B) PF04928473; C) tanespimycin; D) HSP-990. SK-MEL-28 cells treated with IFN-γ and with the indicated HSP90 inhibitor at different concentrations. Cells were assayed for cell viability (square, % viability on left axis) and PD-L1 expression (circle, Z-score right axis) at 48 h after treatment of IFN-γ and/or HSP90 inhibitors. Quadruplicate wells were used for determination of cell viability and PD-L1 expression. Average values were plotted. […] Lysates were probed with anti PD-L1 antibody.
(§1) FIG. 2A-E. Dose response curves of 5 additional HSP90 inhibitors. A) STA-9090, B) CUDC-305, C) MPC-3100, D) XL-888 and E) TAS-116. SK-MEL-28 cells treated with IFN-γ (50 ng/ml) and with the indicated HSP90 inhibitor at different concentrations. Cells were assayed for cell viability (square, % viability on left axis) and PD-L1 expression (circle, Z-score right axis) at 48 h after treatment of IFN-γ and/or HSP inhibitors. Quadruplicate wells were used for determination of cell viability and PD-L1 expression. Average values were plotted.
After assessment for viability, plates were then prepared for immunostaining. Briefly, 16% paraformaldehyde (Electron Microscopy Sciences) was added to each well to a final concentration of 4%, for 10 minutes at room temperature. Following this time, the fix was aspirated and cells were washed 3 times with PBS. Cells were blocked using blocking solution (1% bovine serum albumin in PBS) for 30 minutes. After this time, the blocking reagent was aspirated and immunostaining reagent added. The immunostaining reagent consisted of a biotin conjugated-PD-L1 antibody (eBioscience) diluted in blocking buffer. Plates were sealed and kept at 4 C overnight. The following day, plates were washed 3 times with PBS followed by addition of a streptavidin-luciferase fusion protein (Invivogen) diluted in blocking buffer, for 1 h at room temperature. After this step, the plates were washed 3 times with PBS. After the final wash, PBS was aspirated and 30 uL of QUANTI-Luc™ (Invivogen) was added per well. Plates were immediately read on a plate reader (Victor 3V plate reader, 0.1s) and luciferase activity measured.
The raw PD-L1 intensity (the luciferase readout) corresponding to drug screen plates was normalized to blank plates containing only IFN-γ-treated wells, and the resulting ratio was used for the calculation of Z-scores.
(§2) These 4 HSP90 inhibitors were validated using the same experimental protocol employed above (using the SK-MEL-28 cells +/−IFN-γ in 384 well plates), with the only exception to the original assay design was that each drug was now tested in a 10-point dose response assay where the concentration of drug tested was 9.8-5000 nM (2 fold serial dilution). Cells were seeded and treated in quadruplicate. Viability was assessed after 48 h of treatment of four HSP 90 inhibitors and prior to harvesting the cells for testing PD-L1 signal, as described above.

The test system is the same in series [2]. Briefly: High-content primary screen for small molecules that reduce IFN-γ induced PD-L1 expression. The series is classed as cell-based, human. The settings on record: SK-MEL-28, IFN-γ 50 ng/ml, drugs at 40, 480 and 5000 nM, viability >75%. How it is done: SK-MEL-28 cells (melanoma cell line; […] Cells were expanded in MEM (Corning) containing 10% FBS (Sigma) and 2 mM L-Glutamine. Frozen stocks of cells were prepared for direct use in the high-throughput screening (HTS) assay. Cells were harvested, pelleted and then resuspended in 95% FBS & 5% DMSO at a concentration 1×10^7 cells/ml. One ml aliquots were rate frozen to −80° C. at a rate of 1 degree per minute. These stocks were then transferred to vapor phase liquid nitrogen for long term storage. For screening, frozen cell vials were quickly thawed with continuous agitation in a at 37° C. water bath then re-suspended in the assay media at room temperature and centrifuged at 1,000 rpm for 5 minutes. The resulting pellet was re-suspended in appropriate volume and counted using an automated cell counter and diluted accordingly. Using a manually curated library of approximately 2500 individual drugs (2000 approved drugs, 500 unapproved drugs), drugs from the source plate were transferred to the destination plates (384-well assay plates—Corning #3712) using an ECHO 550 liquid handler (Labcyte). SK-MEL-28 cells (1750 cells per well in 30 μL of media), treated with IFN-g (50 ng/ml final) were added to these pre-formatted plates using a Multidrop™ Combi reagent dispenser (Thermofisher). […] Plates were centrifuged at 800 rpm for one minute before being incubated in a 5% CO2 humidified incubator at 37° C. After assessment for viability, plates were then prepared for immunostaining. Briefly, 16% paraformaldehyde (Electron Microscopy Sciences) was added to each well to a final concentration of 4%, for 10 minutes at room temperature. Following this time, the fix was aspirated and cells were washed 3 times with PBS. […] After this time, the blocking reagent was aspirated and immunostaining reagent added. […] Plates were sealed and kept at 4 C overnight. […] After this step, the plates were washed 3 times with PBS. After the final wash, PBS was aspirated and 30 uL of QUANTI-Luc™ (Invivogen) was added per well.

Series [3] can be described thus: alamarBlue cell viability. It is filed as cell-based. The note with it: human, SK-MEL-28 cells, SK-MEL-28, highest concentration tested (1000 nM), IFN-γ 50 ng/ml. How it is done:
as §1
44 h later, cell viability was determined using alamarBlue™ cell viability reagent (Thermofisher), according to the manufacturers protocol. Briefly, 3 μL of alamarBlue™ reagent was added to each well and plates were incubated for a further 4 h. The plates were read on a Victor ^3V plate reader (Perkin Elmer). Viability for each drug was expressed as a percentage by comparing drug-treated cells and untreated control cells (Set to 100%).
as §2

Series [4] has as its system PD-L1 cell surface expression in AML cell lines (PL-21, TUR, MOLM-14, MV-4-11). Briefly: Flow cytometry of IFN-γ-induced PD-L1 cell surface expression in AML cells. It is filed as cell-based, human. The note with it: 24 hours. How it is done: FIG. 13A-D: MPC-0767 blocks IFN-γ-induced PD-L1 expression in AML cells. A) PL-21, B) TUR, C) MOLM-14, D) MV-4-11 cells treated with MPC-0767 (2 μM), IFN-γ (50 ng/ml) or IFN-γ+MPC-0767 for 24 h before cells were harvested for assessment of PD-L1 cell surface expression.
To ascertain whether MPC-0767 can block IFN-γ-induced PD-L1 expression in AML cells, four AML cell lines harboring WT FLT3 (n=2) or FLT3-ITD (n=2) were treated with human IFN-γ (50 ng/ml) alone, MPC-0767 (2 μM) alone or the combination for 24 hours. Cells were harvested to determine PD-L1 cell surface expression by flow cytometry. Cells were also stained with a viability stain to gate on viable cells and exclude any dead cells. As shown in FIG. 13A-D, all cell lines induced PD-L1 cell surface expression in response to IFN-γ treatment (6-25 fold).

In series [5] the test system is MV-4-11, MOLM-16, TUR, U937, KMS-28, OCI-LY-19 and Z138 cell lines. Briefly: Synergy of MPC-0767 and venetoclax versus basal BCL-2 abundance. The note with it: 72 hours, CellTiter-Glo. It is filed as cell-based, human. How it is done:
FIG. 12: Cell lines representing acute myeloid leukemia, multiple myeloma, diffuse large B cell lymphoma and mantle cell lymphoma were assayed for basal abundance of BCL-2 (Y axis) and a high/low threshold is shown by dashed line. Cell line sensitivity to venetoclax after 72 hour treatment as assessed by CellTiter-Glo (X axis) is denoted by EC50 values shown in parentheses. Following drug combination treatment of MPC-0767 and venetoclax, determination of synergy is shown by bar graphs in black (synergy observed) or grey (no synergy observed).
After 72 hour treatment with the indicated drug combinations, cell viability was assessed using CellTiter-Glo. […] The absolute EC75 for each single agent and drug combination was calculated using the R package DRC (Ritz et al., Dose-Response Analysis Using R. PLoS One. 2015. 10(12):e0146021; R Core Team, A language and environment for statistical computing. R Foundation for Statistical Computing, Vienna, Austria. 2017). […]
To test whether BCL-2 abundance is predictive of the synergy between HSP90 inhibitors and venetoclax observed here, we analyzed BCL-2 abundance in cell lines representing acute myeloid leukemia (MV-4-11, MOLM-16, TUR and U937), multiple myeloma (KMS-28), diffuse large B cell lymphoma (OCI-LY-19) and mantle cell lymphoma (Z138) under basal conditions using flow cytometry. […]
(In general: ATP-based viability assays read luminescence as a measure of living cells.)

Take `COc1c(C)cnc(Cn2cnc3c(Cl)nc(N)nc32)c1C` [CNF-2024]: the “IFN-γ-induced PD-L1 signal” value in series [1] is listed as “blocked”. Also, in series [2], the “hit in the primary screen (reduction of IFN-γ-induced PD-L1 expression)” value is “identified as hits”.

Regarding `CN(C)c1cc2c(cc1Sc1nc3c(N)nccc3n1CCNCC(C)(C)C)OCO2` [CUDC-305], in series [1], the “concentration required to inhibit IFN-γ-induced PD-L1 expression compared with concentration required to affect cell proliferation” value is “far lower”. Besides, the viability (as a rule, a per cent measure of how many cells are alive, often set against a control) at 48 h, 1 µM in series [3] was greater than 80%.

Turning to `COc1cccc(-c2cc(F)ccc2[C@H]2Cc3nc(N)nc(C)c3C(=O)N2)n1` [HSP-990], the “IFN-γ-induced PD-L1 signal” value in series [1] is listed as “blocked”. Besides, the “hit in the primary screen (reduction of IFN-γ-induced PD-L1 expression)” value in series [2] is recorded as “identified as hits”.

For the molecule `C[C@H](N)C(=O)O[C@@H](C)C(=O)N1CCC(CCn2c(Sc3cc4c(cc3Br)OCO4)nc3c(N)ncnc32)CC1` [MPC-0767], the “basal PD-L1 cell surface expression” value in series [4] (MPC-0767 2 μM alone, four AML cell lines) was “did not significantly reduce”. In series [4] (MPC-0767 2 μM with IFN-γ 50 ng/ml, range over four AML cell lines), the “reduction of IFN-γ-induced PD-L1 cell surface expression” value is 43-83%. The synergy with venetoclax result in series [5] (cell lines with high BCL-2 levels) is on record as “observed in 4 out of 4 cell lines”; in series [5] (three cell lines with low BCL-2 levels), “no synergy was observed”.

Regarding `CC1(C)CC(=O)c2c(C(F)(F)F)nn(-c3ccc(C(N)=O)c(N[C@H]4CC[C@H](O)CC4)c3)c2C1` [PF0498473], in series [1], the “IFN-γ-induced PD-L1 signal” value is on record as “blocked”. The “hit in the primary screen (reduction of IFN-γ-induced PD-L1 expression)” value in series [2] is “identified as hits”.

With `CC(C)c1cc(-c2n[nH]c(=O)n2-c2ccc3c(ccn3C)c2)c(O)cc1O` [STA-9090], the “concentration required to inhibit IFN-γ-induced PD-L1 expression compared with concentration required to affect cell proliferation” value in series [1] was “far lower”. Also, the viability at 48 h, 1 µM in series [3] is greater than 80%.

As for `CCc1cc(C(N)=O)ccc1-n1nc(C(C)C)c2c(-n3cnc(-c4cnn(C)c4)c3)ccnc21` [TAS-116], the “concentration required to inhibit IFN-γ-induced PD-L1 expression compared with concentration required to affect cell proliferation” value in series [1] is given as “far lower”. In addition, the viability at 48 h, 1 µM in series [3] is greater than 80%.

Take `CC[C@@H](C)Nc1cc(C(=O)NC2CC3CCC(C2)N3c2ccc(C(=O)C3CC3)cn2)c(C)cc1C(N)=O` (stereo partly drawn) [XL-888]: the “concentration required to inhibit IFN-γ-induced PD-L1 expression compared with concentration required to affect cell proliferation” value in series [1] is “far lower”. This molecule displayed a viability at 48 h, 1 µM in series [3] greater than 80%.

`C=CCNC1=C2C[C@@H](C)C[C@H](OC)[C@H](O)[C@@H](C)/C=C(\C)[C@H](OC(N)=O)[C@@H](OC)/C=C\C=C(/C)C(=O)NC(=CC1=O)C2=O` [tanespimycin]: the “IFN-γ-induced PD-L1 signal” value in series [1] is listed as “blocked”. For the same molecule, the “hit in the primary screen (reduction of IFN-γ-induced PD-L1 expression)” value in series [2] is recorded as “identified as hits”.

B1: IFN-γ: human interferon-gamma used to induce PD-L1 (protein, UniProt P01579 24-161, looked up)
Interferon gamma: QDPYVKEAENLKKYFNAGHSDVADNGTLFLGILKNWKEESDRKIMQSQIVSFYFKLFKNFKDDQSIQKSVETIKEDMNVKFFNSNKKKRDDFEKLTNYSVTDLNVQRKAIHELIQVMAELSPAAKTGKRKRSQMLFRG
On to B1, for which the “induction of PD-L1 cell surface expression” value in series [4] (human IFN-γ 50 ng/ml alone, range over four AML cell lines) is reported as 6-25 fold.
